Data published in patent publication US20250161476A1 (REGENERON PHARMACEUTICALS, INC., priority 2020, published 2025).
*1 amine or outer side, *2 acyl side, *3 side chain or, on linkers, in order; H or OH if unused. Where a SMILES comes first, the peptide text is derived from it. Side-chain parts run from the residue outwards. [ ]: non-standard residue; d: D form. The star is where a group is joined. PEG24 = NCCOCCOCCOCCOCCOCCOCCOCCOCCOCCOCCOCCOCCOCCOCCOCCOCCOCCOCCOCCOCCOCCOCCOCCOCCC(=O)O; Bip(2'-Et-4'-O(CH2)4NH2) = CCc1cc(OCCCCN[*:3])ccc1-c1ccc(C[C@H](N[*:1])C(=O)[*:2])cc1; Bip(2'-Et,4'-O(CH2)4NH2) = CCc1cc(OCCCCN)ccc1-c1ccc(C[C@H](N)C(=O)O)cc1; Malonyl(2,2-Me2,histaminyl) = CC(C)(C(=O)NCCc1cnc[nH]1)C(=O)*; Nva(5-(3,5-Me2Ph)) = Cc1cc(C)cc(CCC[C@H](N)C(=O)O)c1; Ala(1H-tetrazol-5-yl) = N[C@@H](Cc1nnn[nH]1)C(=O)O; X5 = C[C@]1(C(=O)*)CCN(CCc2cnc[nH]2)C1=O; αMePhe(2-F) = C[C@](N)(Cc1ccccc1F)C(=O)O; DBCO = C1#Cc2ccccc2N(*)Cc2ccccc21; Suc = O=C(CCC(=O)[*:2])[*:1]; X3 = CC(C)(C(=O)*)c1ccn[nH]1; X2 = CC(C)(C(N)=O)C(=O)*; X4 = CC(C)(C(=O)O)C(=O)*

Tests used:
human GLP1R = human GLP1R (Homo sapiens (Human), UniProt P43220); assay: cAMP responsive luciferase reporter assay, HEK293/CRE-Luc/hGLP1R cells; assay type: cell-based; details: for HEK293/CRE-LUC/hGLP1R S/N: highest RLU / RLU of untreated wells; for HEK293/CRE-LUC/hGLP1R Relative Potency (% P8 EC50) / HEK293/CRE-LUC/hGLP1R Relative Signal:Noise (% P8): relative to P8 of the same experiment
human GLP1R, sequence (P43220 24-463): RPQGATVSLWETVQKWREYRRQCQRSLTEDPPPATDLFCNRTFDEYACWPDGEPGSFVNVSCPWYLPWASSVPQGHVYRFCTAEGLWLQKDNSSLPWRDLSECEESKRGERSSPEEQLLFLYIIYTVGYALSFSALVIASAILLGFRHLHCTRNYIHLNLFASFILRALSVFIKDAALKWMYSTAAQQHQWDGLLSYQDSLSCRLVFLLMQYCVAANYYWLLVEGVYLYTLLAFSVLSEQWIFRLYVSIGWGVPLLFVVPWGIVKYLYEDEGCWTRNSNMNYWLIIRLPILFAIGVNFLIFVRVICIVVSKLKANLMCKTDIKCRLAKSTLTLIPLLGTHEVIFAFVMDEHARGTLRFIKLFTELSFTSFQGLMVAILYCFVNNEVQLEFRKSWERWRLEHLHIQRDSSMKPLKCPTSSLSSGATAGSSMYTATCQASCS
Text: (§1) To test the activity of GLP1R agonist payloads, GLP1R agonist linker-payloads (LPs), and anti-GLP1R antibody tethered drug conjugates (ATDCs) of the disclosure, a cell-based cAMP responsive luciferase reporter assay was developed. To generate the assay cell line, the firefly luciferase gene was placed under the control of a cAMP response element (CRE) located upstream of a minimal promoter and transfected into HEK293 cells and referred to herein as HEK293/CRE-Luc cells.
(§2) Three-fold serial dilutions of free payloads or LPs were prepared in 100% DMSO, transferred to fresh assay media, and added to the cells at a final constant DMSO concentration of 0.2%. The last well in the plate served as a blank control containing only the assay media and 0.2% DMSO (untreated well) and was plotted as a continuation of the 3-fold serial dilution. Four to six hours later, luciferase activity was determined after the addition of One-Glo™ reagent (Promega, Cat #E6130) to each well. Relative light units (RLUs) were measured on an Envision luminometer (PerkinElmer) and EC50 values were determined using a four-parameter logistic equation over a 12-point dose response curve (GraphPad Prism). The signal to noise (S/N) was determined by taking the ratio of the highest RLU on the dose response curve to the RLU in the untreated wells.
GLP1R agonist linker payloads were conjugated to anti-hGLP1R antibodies via N-terminal heavy or light chain Q tags. Several resulting anti-GLP1R antibody tethered drug conjugates (ATDCs) were tested for activity in the HEK293/CRE-Luc/hGLP1R reporter assay as described above for the free GLP1R payload and linker-payload agonists.

HEK293/CRE-Luc cells = assay: cAMP responsive luciferase reporter assay, HEK293/CRE-Luc cells (no hGLP1R expression); assay type: cell-based, human
Text: as §1, §2

[1] = Plasma stability of payloads and linker-payloads, human plasma; assay type: in vitro ADME; details: for half-life at 2 µM: human, pooled plasma, pH 7.4, payload properties table, species not given, read-out: Plasma stability t½ (converted)
Protocol: The plasma stability of payloads and linker payloads of the disclosure were measured. For the assay, pooled frozen plasma (human, mouse or monkey) was thawed in cold water or a 37° C. water bath prior to experiment. Plasma was centrifuged at 4000 rpm for 5 min if any clots were observed, they were subsequently removed. If required, the pH was adjusted to 7.4±0.1. For the preparation of compounds and positive controls, a 1 mM intermediate solution was prepared by diluting 10 μL of their stock solution with 90 μL DMSO; a 1 mM intermediate solution of the positive control (Propantheline) was prepared by diluting 10 μL of its stock solution with 90 μL ultrapure water. […] 98 μL of plasma was spiked with 2 μL of dosing solution (100 μM) to achieve the final concentration of 2 μM in duplicate. Samples were then incubated at 37° C. in a water bath. […] At each time point, 400 μL of stop solution (200 ng/mL tolbutamide plus 200 ng/mL labetalol in 50% ACN/MeOH) was added to precipitate protein and mixed thoroughly. Sample plates were then centrifuged at 4,000 rpm for 10 min. An aliquot of supernatant (50 μL) was transferred from each well and mixed with 100 μL ultra-pure water. The samples were then shaken at 800 rpm for approximately 10 min before submitting for LC-MS/MS analysis.

Structure (SMILES) | HEK293/CRE-LUC/hGLP1R S/N (human GLP1R) | HEK293/CRE-LUC/hGLP1R Relative Potency (% P8 EC50) (human GLP1R) | HEK293/CRE-LUC/hGLP1R Relative Signal:Noise (% P8) (human GLP1R) | EC50 (HEK293/CRE-Luc cells) | HEK293/CRE-LUC S/N (HEK293/CRE-Luc cells) | Human plasma stability assay T½ ([1]; tested for 1 day (A)) | half-life at 2 µM [1] | Human plasma stability assay T½ ([1]; tested for 2 hrs (B))
CCc1cc(OCCCCNC(=O)CCOCCOCCOCCOCCOCCOCCOCCOCCOCCOCCOCCOCCOCCOCCOCCOCCOCCOCCOCCOCCOCCOCCOCCOCCNC(=O)CCC(=O)N2Cc3ccccc3C#Cc3ccccc32)ccc1-c1ccc(C[C@H](NC(=O)[C@H](CC(=O)O)NC(=O)[C@H](CO)NC(=O)[C@@H](NC(=O)[C@](C)(Cc2ccccc2F)NC(=O)[C@@H](NC(=O)CNC(=O)[C@H](Cc2nn[nH]n2)NC(=O)C(C)(C)C(=O)NCCc2cnc[nH]2)[C@@H](C)O)[C@@H](C)O)C(=O)N[C@@H](CCCc2cc(C)cc(C)c2)C(N)=O)cc1 [LP4, DIBAC-suc-PEG24-P9] ({Malonyl(2,2-Me2,histaminyl)}-[Ala(1H-tetrazol-5-yl)]GT[αMePhe(2-F)]TSD[Bip(2'-Et-4'-O(CH2)4NH2)]([PEG24-Suc-DBCO])[Nva(5-(3,5-Me2Ph))]-NH2) | 63.8 | 4.2% | 97.1% | > 200 nM | 1.7 |  |  | 
CCc1cc(OCCCCN)ccc1-c1ccc(C[C@H](NC(=O)[C@H](CC(=O)O)NC(=O)[C@H](CO)NC(=O)[C@@H](NC(=O)[C@](C)(Cc2ccccc2F)NC(=O)[C@@H](NC(=O)CNC(=O)[C@H](Cc2nn[nH]n2)NC(=O)C(C)(C)C(=O)O)[C@@H](C)O)[C@@H](C)O)C(=O)N[C@@H](CCCc2cc(C)cc(C)c2)C(N)=O)cc1 [P3] (X4-[Ala(1H-tetrazol-5-yl)]GT[αMePhe(2-F)]TSD[Bip(2'-Et,4'-O(CH2)4NH2)][Nva(5-(3,5-Me2Ph))]-NH2) | 46.3 | 0.3% | 70.3% | > 200 nM | 1.2 | >57.81 h | > 57.8 h | 
CCc1cc(OCCCCN)ccc1-c1ccc(C[C@H](NC(=O)[C@H](CC(=O)O)NC(=O)[C@H](CO)NC(=O)[C@@H](NC(=O)[C@](C)(Cc2ccccc2F)NC(=O)[C@@H](NC(=O)CNC(=O)[C@H](Cc2nn[nH]n2)NC(=O)C(C)(C)C(N)=O)[C@@H](C)O)[C@@H](C)O)C(=O)N[C@@H](CCCc2cc(C)cc(C)c2)C(N)=O)cc1 [P4] (X2-[Ala(1H-tetrazol-5-yl)]GT[αMePhe(2-F)]TSD[Bip(2'-Et,4'-O(CH2)4NH2)][Nva(5-(3,5-Me2Ph))]-NH2) | 66.9 | 6.3% | 101.8% | > 200 nM | 1.6 | >57.81 h | > 57.8 h | 
CCc1cc(OCCCCN)ccc1-c1ccc(C[C@H](NC(=O)[C@H](CC(=O)O)NC(=O)[C@H](CO)NC(=O)[C@@H](NC(=O)[C@](C)(Cc2ccccc2F)NC(=O)[C@@H](NC(=O)CNC(=O)[C@H](Cc2nn[nH]n2)NC(=O)C(C)(C)c2ccn[nH]2)[C@@H](C)O)[C@@H](C)O)C(=O)N[C@@H](CCCc2cc(C)cc(C)c2)C(N)=O)cc1 [P6] (X3-[Ala(1H-tetrazol-5-yl)]GT[αMePhe(2-F)]TSD[Bip(2'-Et,4'-O(CH2)4NH2)][Nva(5-(3,5-Me2Ph))]-NH2) | 60.7 | 0.9% | 92.3% | > 200 nM | 1.0 | >57.81 h | > 57.8 h | 
CCc1cc(OCCCCN)ccc1-c1ccc(C[C@H](NC(=O)[C@H](CC(=O)O)NC(=O)[C@H](CO)NC(=O)[C@@H](NC(=O)[C@](C)(Cc2ccccc2F)NC(=O)[C@@H](NC(=O)CNC(=O)[C@H](Cc2nn[nH]n2)NC(=O)C(C)(C)C(=O)NCCc2cnc[nH]2)[C@@H](C)O)[C@@H](C)O)C(=O)N[C@@H](CCCc2cc(C)cc(C)c2)C(N)=O)cc1 [P9, (8S,14S,17S,20S,23S,26S)-8-((2H-tetrazol-5-yl)methyl)-26-(((S)-1-(((S)-1-amino-5-(3,5-dimethylphenyl)-1-oxopentan-2-yl)amino)-3-(4′-(4-aminobutoxy)-2′-ethyl-[1,1′-biphenyl]-4-yl)-1-oxopropan-2-yl)carbamoyl)-17-(2-fluorobenzyl)-14,20-bis((R)-1-hydroxyethyl)-23-(hydroxymethyl)-1-(1H-imidazol-5-yl)-5,5,17-trimethyl-4,6,9,12,15,18,21,24-octaoxo-3,7,10,13, 16,19,22,25-octaazaoctacosan-28-oic acid] ({Malonyl(2,2-Me2,histaminyl)}-[Ala(1H-tetrazol-5-yl)]GT[αMePhe(2-F)]TSD[Bip(2'-Et,4'-O(CH2)4NH2)][Nva(5-(3,5-Me2Ph))]-NH2) | 75.2 | 133.8% | 114.3% | > 200 nM | 1.3 | >57.81 h | > 57.8 h | 
CCc1cc(OCCCCN)ccc1-c1ccc(C[C@H](NC(=O)[C@H](CC(=O)O)NC(=O)[C@H](CO)NC(=O)[C@@H](NC(=O)[C@](C)(Cc2ccccc2F)NC(=O)[C@@H](NC(=O)CNC(=O)[C@H](Cc2nn[nH]n2)NC(=O)[C@H](C)NC(=O)[C@@H](N)Cc2cnc[nH]2)[C@@H](C)O)[C@@H](C)O)C(=O)N[C@@H](CCCc2cc(C)cc(C)c2)C(N)=O)cc1 [P10] (H-HA[Ala(1H-tetrazol-5-yl)]GT[αMePhe(2-F)]TSD[Bip(2'-Et,4'-O(CH2)4NH2)][Nva(5-(3,5-Me2Ph))]-NH2) | 45.1 | 38.0% | 68.6% | > 200 nM | 1.2 |  | 1.8 h | 1.83 h
CCc1cc(OCCCCN)ccc1-c1ccc(C[C@H](NC(=O)[C@H](CC(=O)O)NC(=O)[C@H](CO)NC(=O)[C@@H](NC(=O)[C@](C)(Cc2ccccc2F)NC(=O)[C@@H](NC(=O)CNC(=O)[C@H](Cc2nn[nH]n2)NC(=O)[C@@]2(C)CCN(CCc3cnc[nH]3)C2=O)[C@@H](C)O)[C@@H](C)O)C(=O)N[C@@H](CCCc2cc(C)cc(C)c2)C(N)=O)cc1 [P15-R] (X5-[Ala(1H-tetrazol-5-yl)]GT[αMePhe(2-F)]TSD[Bip(2'-Et,4'-O(CH2)4NH2)][Nva(5-(3,5-Me2Ph))]-NH2) | 67.8 | 40.3% | 103.1% | > 200 nM | 1.1 |  |  | 
